Source: patent publication US12643910B2, “Substituted pyrazolo[3,4-b]pyridines as ectonucleotide pyrophosphatase/phosphodiesterase 1 (ENPP1) modulators” (SANFORD BURNHAM PREBYS MEDICAL DISCOVERY INSTITUTE, priority 2019, dated 2026)

Target: T1, human ENPP1 (Homo sapiens, UniProt P22413)
T1 construct: made in house
T1 sequence (P22413 1-925): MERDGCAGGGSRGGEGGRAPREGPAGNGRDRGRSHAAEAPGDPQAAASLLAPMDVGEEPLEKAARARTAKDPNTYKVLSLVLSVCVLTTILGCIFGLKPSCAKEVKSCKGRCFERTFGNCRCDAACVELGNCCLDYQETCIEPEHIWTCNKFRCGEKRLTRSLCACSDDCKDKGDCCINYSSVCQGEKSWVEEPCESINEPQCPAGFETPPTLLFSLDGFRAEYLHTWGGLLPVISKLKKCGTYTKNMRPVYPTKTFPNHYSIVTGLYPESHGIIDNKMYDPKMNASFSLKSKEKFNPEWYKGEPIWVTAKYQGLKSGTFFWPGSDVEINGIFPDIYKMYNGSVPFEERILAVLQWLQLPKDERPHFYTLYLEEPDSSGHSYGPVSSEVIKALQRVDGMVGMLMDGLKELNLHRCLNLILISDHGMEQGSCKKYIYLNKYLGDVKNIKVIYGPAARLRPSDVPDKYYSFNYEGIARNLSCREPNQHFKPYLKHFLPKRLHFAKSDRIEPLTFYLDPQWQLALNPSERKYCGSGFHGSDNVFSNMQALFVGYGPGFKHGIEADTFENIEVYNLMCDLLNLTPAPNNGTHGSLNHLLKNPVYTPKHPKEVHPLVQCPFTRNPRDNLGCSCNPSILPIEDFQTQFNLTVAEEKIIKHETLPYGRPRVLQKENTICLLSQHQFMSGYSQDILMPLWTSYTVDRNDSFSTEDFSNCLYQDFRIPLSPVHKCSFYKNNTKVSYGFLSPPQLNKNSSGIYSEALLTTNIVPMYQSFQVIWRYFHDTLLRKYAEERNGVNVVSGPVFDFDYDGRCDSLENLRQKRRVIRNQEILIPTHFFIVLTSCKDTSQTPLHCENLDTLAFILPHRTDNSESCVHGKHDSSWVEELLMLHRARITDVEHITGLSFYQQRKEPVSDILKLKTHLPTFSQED
Test: ENPP1 assay with ATP substrate (Transcreener AMP2/GMP2 TR-FRET)
Type: biochemical
Details: 1 hour at room temperature
Excerpt: Example B1: ENPP1 Assay with ATP Substrate
Ectonucleotide pyrophosphatase/phosphodiesterase 1 (ENPP1) hydrolyzes ATP, breaking it down into 5′-AMP and pyrophosphate. The 5′-AMP formed from the reaction is detected by Transcreener® AMP2/GMP2 TR-FRET Assay (Bellbrook), containing AMP-tracer (HiLyte 647) and anti-AMP Terbium (Tb) donor. 5′-AMP generated in the reaction competes with AMP-tracer for binding with Anti-AMP Tb donor, and decreases TR-FRET signal.
Different concentrations of ENPP1 inhibitors are added to dry assay plate, followed by 2 μl 300 nM ATP. The reaction is initiated with the addition of 2 μl 8.5 μM human ENPP1 (generated by SBP Protein group). The assay reaction mixture contains a buffer of 50 mM Tris, pH 7.5, 1 mM TCEP, 2 mM MgCl2, 0.005% Tween 20, and 1% DMSO. The reaction is stopped after 1 hour at room temperature by adding 2 μL of 2 nM AMP-tracer and 2 μl of 2 nM Anti-AMP Tb donor in the 50 mM Tris, pH 7.5, buffer containing 20 mM EDTA and 0.1% Prionex. After 2 hour additional incubation at room temperature, the generated signal is measured using BMG Lab PHERASTAR instrument. 100% activity control samples (containing enzyme, substrate, buffer: MAX) and no enzyme control samples (containing substrate and buffer: MIN) are utilized to calculate percent inhibition (%) for each compound concentration well (COMPOUND) as follows.
The IC50 values are determined by fitting the inhibition curves with 2-parameter variable slope model in Graphpad Prism software using percent inhibition vs compound concentration data: […]

| SMILES | IC50 |
| --- | --- |
| c1ccc(-c2csc3nc(-c4ccccn4)nc(NCc4ccccn4)c23)cc1 [Example 1.2, (5-Phenyl-2-pyridin-2-yl-thieno[2,3-d]pyrimidin-4-yl)-pyridin-2-ylmethyl-amine] | > 20 µM |
| NS(=O)(=O)c1cccc(CNc2nc(-c3ccccn3)nc3scc(-c4ccccc4)c23)c1 [Example 1.12, 3-[(5-Phenyl-2-pyridin-2-yl-thieno[2,3-d]pyrimidin-4-ylamino)-methyl]-benzenesulfonamide] | 1 to 20 µM |
| Cn1ncc(CNc2nc(-c3ccccn3)nc3scc(-c4ccccc4)c23)c1N [Example 1.34, (5-Amino-1-methyl-1H-pyrazol-4-ylmethyl)-(5-phenyl-2-pyridin-2-yl-thieno[2,3-d]pyrimidin-4-yl)-amine] | 1 to 20 µM |
| c1ccc(-c2csc3nc(-c4ccccn4)nc(NCc4ccco4)c23)cc1 [Example 1.35, Furan-2-ylmethyl-(5-phenyl-2-pyridin-2-yl-thieno[2,3-d]pyrimidin-4-yl)-amine] | 1 to 20 µM |
| CN(c1nc(-c2ccccn2)nc2scc(-c3ccccc3)c12)C1CCCC1 [Example 1.36, Cyclopentyl-methyl-(5-phenyl-2-pyridin-2-yl-thieno[2,3-d]pyrimidin-4-yl)-amine] | > 20 µM |
| Cc1csc2nc(-c3ccccn3)nc(NCc3ccc(S(N)(=O)=O)s3)c12 [Example 1.37, 5-(((5-Methyl-2-(pyridin-2-yl)thieno[2,3-d]pyrimidin-4-yl)amino)methyl)thiophene-2-sulfonamide] | > 20 µM |
| Cn1ncc2c(NCc3ccc(S(N)(=O)=O)cc3)nc(-c3ccccc3)nc21 [Example 2, 4-(((1-Methyl-6-phenyl-1H-pyrazolo[3,4-d]pyrimidin-4-yl)amino)methyl)-benzenesulfonamide] | 1 to 20 µM |
| Cn1ncc2c(NCc3ccccc3)nc(-c3ccccn3)nc21 [Example 2.9, N-Benzyl-1-methyl-6-(pyridin-2-yl)-1H-pyrazolo[3,4-d]pyrimidin-4-amine] | > 20 µM |
| COc1ccc(CNc2nc(-c3ccccn3)nc3c2cnn3C)cc1 [Example 2.11, N-(4-Methoxybenzyl)-1-methyl-6-(pyridin-2-yl)-1H-pyrazolo[3,4-d]pyrimidin-4-amine] | > 20 µM |
| Cn1ncc2c(NCc3cccc(F)c3)nc(-c3ccccn3)nc21 [Example 2.12, N-(3-Fluorobenzyl)-1-methyl-6-(pyridin-2-yl)-1H-pyrazolo[3,4-d]pyrimidin-4-amine] | > 20 µM |
| Cn1ncc2c(NCc3ccc(Cl)cc3)nc(-c3ccccn3)nc21 [Example 2.13, N-(4-Chlorobenzyl)-1-methyl-6-(pyridin-2-yl)-1H-pyrazolo[3,4-d]pyrimidin-4-amine] | > 20 µM |
| Cn1ncc2c(NCc3ccc(S(N)(=O)=O)cc3)nc(-c3cccnc3)nc21 [Example 2.15, 4-(((1-Methyl-6-(pyridin-3-yl)-1H-pyrazolo[3,4-d]pyrimidin-4-yl)amino)methyl)-benzenesulfonamide] | 1 to 20 µM |
| Cn1ncc2c(NCc3ccc(S(N)(=O)=O)cc3)nc(-c3ccncc3)nc21 [Example 2.16, 4-(((1-Methyl-6-(pyridin-4-yl)-1H-pyrazolo[3,4-d]pyrimidin-4-yl)amino)methyl)-benzenesulfonamide] | > 20 µM |
| Cn1ncc2c(NCc3ccncc3)nc(-c3ccccn3)nc21 [Example 2.17, 1-Methyl-6-(pyridin-2-yl)-N-(pyridin-4-ylmethyl)-1H-pyrazolo[3,4-d]pyrimidin-4-amine] | 1 to 20 µM |
| Cn1ncc2c(NCc3cccnc3)nc(-c3ccccn3)nc21 [Example 2.18, 1-Methyl-6-(pyridin-2-yl)-N-(pyridin-3-ylmethyl)-1H-pyrazolo[3,4-d]pyrimidin-4-amine] | > 20 µM |
| Cn1ncc2c(NCc3ccccn3)nc(-c3ccccn3)nc21 [Example 2.19, 1-Methyl-6-(pyridin-2-yl)-N-(pyridin-2-ylmethyl)-1H-pyrazolo[3,4-d]pyrimidin-4-amine] | > 20 µM |

| SMILES | IC50 |
| --- | --- |
| Cn1ncc2c(NCc3cccs3)nc(-c3ccccn3)nc21 [Example 2.21, 1-Methyl-6-(pyridin-2-yl)-N-(thiophen-2-ylmethyl)-1H-pyrazolo[3,4-d]pyrimidin-4-amine] | > 20 µM |
| Cc1ccc(CNc2nc(-c3ccccn3)nc3c2cnn3C)o1 [Example 2.22, 1-Methyl-N-((5-methylfuran-2-yl)methyl)-6-(pyridin-2-yl)-1H-pyrazolo[3,4-d]pyrimidin-4-amine] | > 20 µM |
| Cn1ncc2c(NCc3ccco3)nc(-c3ccccn3)nc21 [Example 2.23, N-(Furan-2-ylmethyl)-1-methyl-6-(pyridin-2-yl)-1H-pyrazolo[3,4-d]pyrimidin-4-amine] | > 20 µM |
| Cc1ccncc1/C=C/CNC1CCN(c2ncnc3c(Br)csc23)CC1 [Example 3.62, (E)-1-(7-Bromothieno[3,2-d]pyrimidin-4-yl)-N-(3-(4-methylpyridin-3-yl)allyl)piperidin-4-amine] | < 0.1 µM |
| Cc1ccncc1CCCNC1CCN(c2ncnc3ccsc23)CC1 [Example 3.63, N-(3-(4-Methylpyridin-3-yl)propyl)-1-(thieno[3,2-d]pyrimidin-4-yl)piperidin-4-amine] | 1 to 20 µM |
| O=C(CCc1ccc(F)cc1)NC1CCN(c2ncnc3c(Cl)csc23)CC1 [Example 3.64, N-(1-(7-Chlorothieno[3,2-d]pyrimidin-4-yl)piperidin-4-yl)-3-(4-fluorophenyl)propanamide] | 1 to 20 µM |
| Cc1csc2c(N3CCC(NCCCc4ccncc4)CC3)nc(Cl)nc12 [Example 3.65, 1-(2-Chloro-7-methylthieno[3,2-d]pyrimidin-4-yl)-N-(3-(pyridin-4-yl)propyl)piperidin-4-amine] | 1 to 20 µM |
| COc1nc(N2CCC(NCCCc3ccncc3)CC2)c2scc(C)c2n1 [Example 3.66, 1-(2-Methoxy-7-methylthieno[3,2-d]pyrimidin-4-yl)-N-(3-(pyridin-4-yl)propyl)piperidin-4-amine] | 1 to 20 µM |
| Cc1ccncc1CCCNC1CCN(c2nc(Cl)nc3c(C)csc23)CC1 [Example 3.68, 1-(2-Chloro-7-methylthieno[3,2-d]pyrimidin-4-yl)-N-(3-(4-methylpyridin-3-yl)propyl)piperidin-4-amine] | 1 to 20 µM |
| CNc1nc(N2CCC(NCCCc3cnccc3C)CC2)c2scc(C)c2n1 [Example 3.69, N,7-Dimethyl-4-(4-((3-(4-methylpyridin-3-yl)propyl)amino)piperidin-1-yl)thieno[3,2-d]pyrimidin-2-amine] | 1 to 20 µM |
| COc1nc(N2CCC(NCCCc3cnccc3C)CC2)c2scc(C)c2n1 [Example 3.70, 1-(2-Methoxy-7-methylthieno[3,2-d]pyrimidin-4-yl)-N-(3-(4-methylpyridin-3-yl)propyl)piperidin-4-amine] | 0.1 to 1 µM |
| Cc1ccncc1CCCNC1CCN(c2nc(NCCO)nc3c(C)csc23)CC1 [Example 3.71, 2-((7-Methyl-4-(4-((3-(4-methylpyridin-3-yl)propyl)amino)piperidin-1-yl)thieno[3,2-d]pyrimidin-2-yl)amino)ethanol] | 0.1 to 1 µM |
| Cc1csc2c(N3CCC(NC/C=C/c4ccncc4)CC3)ncnc12 [Example 3.76, (E)-1-(7-methylthieno[3,2-d]pyrimidin-4-yl)-N-(3-(pyridin-4-yl)allyl)piperidin-4-amine] | 0.1 to 1 µM |
| Cc1csc2c(N3CCC(NC(=O)C4CC4c4ccccc4)CC3)ncnc12 (stereo not shown) [Example 3.79, N-(1-(7-Methylthieno[3,2-d]pyrimidin-4-yl)piperidin-4-yl)-2-phenylcyclopropanecarboxamide] | 1 to 20 µM |
| Cc1csc2c(N3CCC(NCC4CC4c4ccncc4)CC3)nc(Cl)nc12 (stereo not shown) [Example 3.80, 1-(2-Chloro-7-methylthieno[3,2-d]pyrimidin-4-yl)-N-((2-(pyridin-4-yl)cyclopropyl)methyl)piperidin-4-amine] | 1 to 20 µM |
